Laboratory results reported in patent US9035073B2, “3-phenyl-3-methoxy-pyrrolidine derivatives useful as modulators of cortical catecholaminergic neurotransmission” (INTEGRATIVE RESEARCH LABORATORIES SWEDEN AB, priority 2008, dated 2015).
Counter-ions that a name gives are not always drawn.

What was measured:
[1] = test system: Norepinephrine (NA) in Prefrontal Cortex; experiment: Microdialysis in awake and freely moving rats, NA in prefrontal cortex; format: in vivo, rat; settings: 50 μmol/kg s.c., awake freely moving rats
Text: (§1) Male Sprague-Dawley rats weighing 220-320 g were used throughout the experiments. Before the experiment the animals were group housed, five animals in each cage, with free access to water and food. The animals were housed at least one week after arrival prior to surgery and use in the experiments. Each rat was used only once for microdialysis.
(§2) We use a modified version (Waters et al., 1994) of the I-shaped probe (Santiago M & Westerink B H C, 1990). The dialysis membrane we use is the AN69 polyacrylonitrile/sodiummethalylsulfonate copolymer (HOSPAL; o.d./i.d. 310/220 μm: Gambro, Lund, Sweden). In the dorsal striatum we use probes with an exposed length of 3 mm of dialysis membrane and in the prefrontal cortex the corresponding length is 2.5 mm. The rats were operated under isoflurane inhalationanesthesia while mounted into a Kopf stereotaxic instrument. Co-ordinates were calculated relative to bregma; dorsal striatum AP +1, ML ±2.6, DV −6.3; Pf cortex, AP +3.2, 8° ML ±1.2, DV −4.0 according to (Paxinos G & Watson C, 1986). The dialysis probe was positioned in a burr hole under stereotaxic guidance and cemented with phosphatine dental cement.
(§3) The rats were housed individually in cages for 48 h before the dialysis experiments, allowing them to recover from surgery and minimizing the risk of drug interactions with the anaesthetic during the following experiments. During this period the rats had free access to food and water. On the day of experiment the rats were connected to a micro perfusion pump via a swiwel and were replaced in the cage where they could move freely within its confinements. The perfusion medium was a Ringer's solution containing in mmol/l: NaCl; 140, CaCl2; 1.2, KCl; 3.0, MgCl2; 1.0 and ascorbic acid; 0.04 according to (Moghaddam B & Bunney B S, 1989). The pump was set to a perfusion speed of 2 μl/min and 40 μl samples were collected every 20 min. Each sample was analyzed at two HPLC systems. On an autoinjector (CMA 200) with a 10-port valve (Valco C10WE), holding two sample loops in series (4 μl and 20 μl), each brain dialysate sample is loaded in both loops simultaneously. […] The currents generated by the two EC detectors are converted to digital data and evaluated using Chromeleon software (Dionex) on a PC. The method sample turn over time was 4.5 min and two parallel experiments are normally analyzed simultaneously on the system. […]

[2] = test system: Dopamine (DA) in Striatum; experiment: Microdialysis in awake and freely moving rats, DA in striatum; format: in vivo, rat; settings: 50 μmol/kg s.c., awake freely moving rats
Text: as §1, §2, §3

[3] = test system: Serotonin (5-HT) in Striatum; experiment: Microdialysis in awake and freely moving rats, 5-HT in striatum; format: in vivo, rat; settings: 50 μmol/kg s.c., awake freely moving rats
Text: as §1, §2, §3

[4] = test system: Norepinephrine (NA) in Striatum; experiment: Microdialysis in awake and freely moving rats, NA in striatum; format: in vivo, rat; settings: 50 μmol/kg s.c., awake freely moving rats
Text: as §1, §2, §3

[5] = test system: Dopamine (DA) in Prefrontal Cortex; experiment: Microdialysis in awake and freely moving rats, DA in prefrontal cortex; format: in vivo, rat; settings: 50 μmol/kg s.c., awake freely moving rats
Text: as §1, §2, §3

[6] = test system: Serotonin (5-HT) in Prefrontal Cortex; experiment: Microdialysis in awake and freely moving rats, 5-HT in prefrontal cortex; format: in vivo, rat; settings: 50 μmol/kg s.c., awake freely moving rats
Text: as §1, §2, §3

| SMILES | NA PFC ± SEM, maximum effect compared to baseline values [1] | DA Stri ± SEM, maximum effect compared to baseline values [2] | 5-HT Stri ± SEM, maximum effect compared to baseline values [3] | NA Stri ± SEM, maximum effect compared to baseline values [4] | DA PFC ± SEM, maximum effect compared to baseline values [5] | 5-HT PFC ± SEM, maximum effect compared to baseline values [6] | melting point |
| --- | --- | --- | --- | --- | --- | --- | --- |
| CCN1CCC(OC)(c2cccc(F)c2F)C1 (single isomer, unassigned; (+)) [Example 6, (+)-3-(2,3-difluorophenyl)-1-ethyl-3-methoxypyrrolidine] | 285 ± 17% of control | 133 ± 9% of control | 138 ± 9% of control | 113% of control | 297 ± 18% of control | 157 ± 6% of control |  |
| CCN1CCC(OC)(c2cccc(F)c2F)C1 (single isomer, unassigned; (-)) (as salt: fumaric acid salt) [Example 8, (−)-3-(2,3-difluorophenyl)-1-ethyl-3-methoxypyrrolidine] |  |  |  |  |  |  | 105 to 107 °C |
| CCN1CCC(OC)(c2cccc(F)c2F)C1 (single isomer, unassigned; (+)) (as salt: fumaric acid salt) [Example 6, (+)-3-(2,3-difluorophenyl)-1-ethyl-3-methoxypyrrolidine] |  |  |  |  |  |  | 104 to 106 °C |
| COC1(c2cccc(Cl)c2F)CCNC1 (single isomer, unassigned; (+)) (as salt: oxalic acid salt) [Example 1, (+)-3-(3-chloro-2-fluorophenyl)-3-methoxypyrrolidine] |  |  |  |  |  |  | 183 to 185 °C |
| COC1(c2cccc(F)c2F)CCNC1 (single isomer, unassigned; (+)) [Example 5, (+)-3-(2,3-difluorophenyl)-3-methoxypyrrolidine] | 437 ± 25% of control | 116 ± 0% of control | 296 ± 55% of control | 168% of control | 353 ± 61% of control | 260 ± 19% of control |  |
| CCN1CCC(OC)(c2cccc(F)c2F)C1 (single isomer, unassigned; (-)) [Example 8, (−)-3-(2,3-difluorophenyl)-1-ethyl-3-methoxypyrrolidine] | 282% of control | 119 ± 3% of control | 187% of control | 169 ± 28% of control | 252% of control | 197% of control |  |
| CCN1CCC(OC)(c2cccc(Cl)c2F)C1 (single isomer, unassigned; (+)) (as salt: fumaric acid salt) [Example 2, (+)-3-(3-chloro-2-fluorophenyl)-1-ethyl-3-methoxypyrrolidine] |  |  |  |  |  |  | 131 to 133 °C |
| COC1(c2cccc(F)c2F)CCNC1 (single isomer, unassigned; (+)) (as salt: oxalic acid salt) [Example 5, (+)-3-(2,3-difluorophenyl)-3-methoxypyrrolidine] |  |  |  |  |  |  | 182 to 184 °C |
| CCN1CCC(OC)(c2cccc(F)c2F)C1 (centres unmarked) (as salt: fumaric acid salt) [Example 13, 3-(2,3-difluorophenyl)-1-ethyl-3-methoxypyrrolidine] |  |  |  |  |  |  | 94 to 98 °C |
| CCN1CCC(OC)(c2ccc(F)c(F)c2)C1 (centres unmarked) (as salt: oxalic acid salt) [Example 10, 3-(3,4-difluorophenyl)-1-ethyl-3-methoxypyrrolidine] |  |  |  |  |  |  | 135 to 136 °C |
| COC1(c2cc(F)cc(F)c2)CCNC1 (single isomer, unassigned; (+)) (as salt: oxalic acid salt) [Example 14, (+)-3-(3,5-difluorophenyl)-3-methoxypyrrolidine] |  |  |  |  |  |  | 185 to 187 °C |
| COC1(c2cccc(Cl)c2F)CCNC1 (single isomer, unassigned; (+)) [Example 1, (+)-3-(3-chloro-2-fluorophenyl)-3-methoxypyrrolidine] | 660 ± 38% of control | 122 ± 8% of control | 350 ± 28% of control | 164 ± 22% of control | 459 ± 103% of control | 327 ± 58% of control |  |
